# Measured values: patent US20220409617A1, “Drug Formulations and Methods of Treatment for Metabolic Disorders” (The Regents of the University of California, priority 2019, published 2022)
# System: brain mitochondria
# Assay: Brain (hypothalamus) mitochondrial morphology, citrate synthase staining
# Assay type: in vivo, mouse
# Conditions: single oral dose 120 mg/kg, HFD-fed mice
# Method: Preventing mitochondrial fission in the liver improves insulin sensitivity in mice with diet-induced obesity, while blocking fission in anorexigenic hypothalamic POMC neurons reduces food intake by restoring leptin sensitivity (A. Santoro, et al., 2017; and M. Schneeberger, et al., 2013, cited supra). To determine whether sphingolipid-like compound 893 was also effective in the hypothalamus, mitochondrial morphology was assessed in the brains of the same mice evaluated in FIG. 13. Due to the increased time required to remove the organ, brain mitochondria were visualized in fixed tissues by immunofluorescence microscopy rather than by NADH/NADPH autofluorescence. […] Sphingolipid-like compound 893 reversed these HFD-induced changes in mitochondrial morphology in the brains of 3 out of 4 animals examined (FIG. 14). […]
# MEFs were washed twice with PBS and fixed with 4% paraformaldehyde for 10 min at RT. […] NADH/NADPH autofluorescence was detected with 740 nm excitation and 450±50 nm detectors using a Mai Tai two-photon laser. Fluorescence microscopy was performed on a Zeiss LSM 780 confocal using a 63× oil objective with a […] numerical aperture (NA) or using a Nikon TE2000-S inverted epifluorescence microscope with a 100× oil objective (1.3 NA) and a Photometrics CoolSNAP ES2 monochrome CCD camera. […]
smiles,measurement,value
CCCCCCCCc1ccc([C@H]2CCN[C@@H]2CO)cc1.Cl [compound 893],Animals with reversal of HFD-induced changes in brain mitochondrial morphology,3 out of 4
